The Bradley open melting point set (2014)
Several values for one entry are separate records, joined by “and”; a condition that tells them apart may be missing. Equal values may be shown once.

| SMILES | melting point |
| --- | --- |
| C=C(C)C(=O)OC(O)CC (stereo not drawn) [1-Hydroxypropyl methacrylate] | -58 °C |
| O=[N+]([O-])c1ccc(I)cc1 [1-Iodo-4-nitrobenzene] | 176 °C |
| CCCCI [1-Iodobutane] | -103 °C |
| CCCCCCCCCCCCCCCCI [1-Iodohexadecane] | 22 °C |
| CCCI [1-Iodopropane] | -101 °C |
| Cc1ccc(C(C)C)cc1 [1-Isopropyl-4-methylbenzene] | -68 °C |
| S=C=Nc1cccc2ccccc12 [1-Isothiocyanatonaphthalene] | 58 °C |
| COCC(C)O (stereo not drawn) [1-Methoxypropan-2-ol] | -97 °C |
| CC1(C(=O)O)CCCCC1 [1-Methylcyclohexanecarboxylic acid] | 38 °C |
| Cc1cccc2c1Cc1ccccc1-2 [1-Methylfluorene] | 85 °C |
| Cc1cccc2ccccc12 [1-Methylnaphthalene] | -22 °C |
| CNC(=O)Oc1cccc2ccccc12 [1-Naphthyl methylcarbamate] | 142 °C |
| C=Cc1cccc([N+](=O)[O-])c1 [1-Nitro-3-vinylbenzene] | -5 °C |
| O=[N+]([O-])c1cccc2ccccc12 [1-Nitronaphthalene] | 62 °C |
| O=[N+]([O-])c1ccc(/N=N/c2c(O)ccc3ccccc23)cc1 [1-[(E)-(4-Nitrophenyl)diazenyl]-2-naphthol] | 250 °C |
| CC(=O)c1cccc2ccccc12 [1-acetylnaphthalene] | 10 °C |
| Nc1ccc(O)c2c1C(=O)c1ccccc1C2=O [1-amino-4-hydroxyanthraquinone] | 208 °C |
| CCCCCCCCCCN [1-aminodecane] | 16 °C |
| Nc1ccc2ccc3cccc4ccc1c2c34 [1-aminopyrene] | 118 °C |
| O=C1CCN(C(=O)c2ccccc2)CC1 [1-benzoyl-4-piperidone] | 55 °C |
| N#CC1(O)CCN(Cc2ccccc2)CC1 [1-benzyl-4-cyano-4-hydroxypiperidine] | 97 °C |
| c1ccc(Cn2ccnc2)cc1 [1-benzylimidazole] | 71 °C |
| CC(C)(C)OC(=O)N1CCCCC1=O [1-boc-2-piperidone] | 36 °C |

| SMILES | melting point |
| --- | --- |
| CC(C)(C)OC(=O)N1CCc2ccccc21 [1-boc-indoline] | 47 °C |
| CC(C)(C)OC(=O)N1CCNCC1 [1-boc-piperazine] | 46 °C |
| ClCCBr [1-bromo-2-chloroethane] | -17 °C |
| CCc1ccccc1Br [1-bromo-2-ethylbenzene] | -68 °C |
| Brc1ccccc1I [1-bromo-2-iodobenzene] | 10 °C |
| Oc1ccc2ccccc2c1Br [1-bromo-2-naphthol] | 75 °C |
| CC(C)CCBr [1-bromo-3-methylbutane] | -112 °C |
| Brc1ccc(I)cc1 [1-bromo-4-iodobenzene] | 91 °C |
| CCCCCBr [1-bromopentane] [listing 1 of 2 here] | -88 °C |
| CCCCCBr [1-bromopentane] [listing 2 of 2 here] | -95 °C |
| FC(F)(F)C(F)(F)C(F)(F)C(F)(F)C(F)(F)C(F)(F)C(F)(F)C(F)(F)Br [1-bromoperfluorooctane] | 6 °C |
| CCCBr [1-bromopropane] | -110 °C |
| CCCCCCCCCCCBr [1-bromoundecane] | -9 °C |
| CCCCS [1-butanethiol] | -116 °C |
| C=CCC [1-butene] | -185 °C |
| Clc1ccccc1I [1-chloro-2-iodobenzene] | 1 °C |
| O=[N+]([O-])c1ccc(Cl)cc1[N+](=O)[O-] [1-chloro-3,4-dinitrobenzene] | 23 °C |
| O=[N+]([O-])c1cccc(Cl)c1 [1-chloro-3-nitrobenzene] | 45 °C |
| Clc1cccc2cc3ccccc3cc12 [1-chloroanthracene] | 77 °C |
| Clc1cccc2ccccc12 [1-chloronaphthalene] | -20 °C |
| CCCCCCCCCCl [1-chlorononane] | -39 °C |
| CCCCCCCCCCS [1-decanethiol] | -26 °C |
| C=CCCCCCCCC [1-decene] [listing 1 of 2 here] | -66.1 °C |

| SMILES | melting point |
| --- | --- |
| C=CCCCCCCCC [1-decene] [listing 2 of 2 here] | -66 °C |
| CN(C)/C=C/[N+](=O)[O-] [1-dimethylamino-2-nitroethylene] | 103 °C |
| CC(O)CN(C)C (stereo not drawn) [1-dimethylamino-2-propanol] | -85 °C |
| C#CCCCCCCCCCC [1-dodecyne] | -19 °C |
| CCC1(O)CCC(c2ccccc2)c2ccccc21 (stereo not drawn) [1-ethyl-4-phenyl-1,2,3,4-tetrahydronaphthalen-1-ol] | 112 °C |
| C#CC1(O)CCCCC1 [1-ethynyl-1-cyclohexanol] | 33 °C |
| O=[N+]([O-])c1cccc(F)c1 [1-fluoro-3-nitrobenzene] | 2 °C |
| CCCCCCCO [1-heptanol] | -34 °C (2×) and -33.2 °C |
| C#CCCCCC [1-heptyne] | -81 °C |
| CCCCCCCCCCCCCCCCS [1-hexadecanethiol] | 21 °C |
| C#CCCCCCCCCCCCCCC [1-hexadecyne] | 15 °C |
| CCCCCCN [1-hexylamine] | -19 °C |
| O=[N+]([O-])c1ccccc1I [1-iodo-2-nitrobenzene] | 50 °C |
| O=[N+]([O-])c1cccc(I)c1 [1-iodo-3-nitrobenzene] | 38 °C |
| O=[N+]([O-])c1ccc(I)cc1 [1-iodo-4-nitrobenzene] | 175 °C |
| CCCCI [1-iodobutane] | -103 °C |
| CCCCCCCCCCI [1-iododecane] | -16 °C |
| CCCCCCCCCCCCI [1-iodododecane] | 0 °C |
| CCCCCCCI [1-iodoheptane] | -48 °C |
| CCCCCI [1-iodopentane] | -86 °C |
| CCCI [1-iodopropane] | -101 °C |
| Cc1ccccc1-c1ccccc1 [1-methyl-2-phenylbenzene] | 0 °C |
| Cc1cccc(-c2ccccc2)c1 [1-methyl-3-phenylbenzene] | 5 °C |

| SMILES | melting point |
| --- | --- |
| Cc1ccc(C(C)C)cc1 [1-methyl-4-isopropylbenzene] | -68 °C |
| Cc1ccc(C(C)(C)C)cc1 [1-methyl-4-tert-butylbenzene] | -53 °C |
| CC1(C(=O)O)CCCCC1 [1-methylcyclohexanecarboxylic acid] | 38 °C |
| CC1(O)CCCCC1 [1-methylcyclohexanol] | 26 °C |
| CC1(O)CCCC1 [1-methylcyclopentanol] [listing 1 of 2 here] | 37 °C |
| CC1(O)CCCC1 [1-methylcyclopentanol] [listing 2 of 2 here] | 37 °C |
| CC1=CCCC1 [1-methylcyclopentene] | -142 °C |
| Cn1cnc(C(=O)O)c1 [1-methylimidazole-4-carboxylic acid] | 242 °C |
| CCCCc1ccc(C#Cc2ccc(CCCC)cc2)cc1 [1-n-butyl-4-[(4-butylphenyl)ethynyl]benzene] | 41 °C |
| O=Cc1cccc2ccccc12 [1-naphthaldehyde] | 2 °C |
| Oc1cccc2ccccc12 [1-naphthol] | 96 °C |
| NC(=O)Cc1cccc2ccccc12 [1-naphthylacetamide] | 177 °C |
| CCCCCCCCCCCCCCCCCCO [1-octadecanol] | 61 °C |
| C#CCCCCCCCCCCCCCCCC [1-octadecyne] | 27 °C |
| C=CCCCCCC [1-octene] | -102 °C |
| CCCCCO [1-pentanol] | -78 °C |
| CCCC=CB(O)O [1-pentenylboronic acid] | 80 °C |
| CC(=O)OC1=CC(c2ccccc2)c2ccccc21 (stereo not drawn) [1-phenyl-1H-inden-3-yl acetate] | 56 °C |
| NC(=O)NNc1ccccc1 [1-phenylsemicarbazide] | 172 °C |
| CCCS [1-propanethiol] | -113 °C |
| CCCN [1-propylamine] | -83 °C |
| O=C(O)CCCc1ccc2ccc3cccc4ccc1c2c34 [1-pyrenebutyric acid] | 185 °C |
| Cc1ccc(C(C)(C)C)cc1 [1-tert-Butyl-4-methylbenzene] | -52 °C |

| SMILES | melting point |
| --- | --- |
| CC(=O)OC[C@H]1O[C@@H](S)[C@H](OC(C)=O)[C@@H](OC(C)=O)[C@@H]1OC(C)=O [1-thio-beta-D-glucose tetraacetate] | 116 °C |
| C=CCCCCCCCCC [1-undecene] | -49 °C |
| COC(=O)c1cc(C)[nH]n1 [1H-pyrazole-3-carboxylic acid, 5-methyl-, methyl ester] | 107 °C |
| Cc1cc(CO)nn1C [1H-pyrazole-3-methanol, 1,5-dimethyl-] | 41 °C |
| c1c[nH]nn1 [1h-1,2,3-triazole] | 24 °C |
| O=c1c(O)c(-c2ccccc2O)oc2ccccc12 [2',3-dihydroxyflavone] | 203 °C |
| CC(=O)Nc1ccc(F)cc1F [2',4'-difluoroacetanilide] | 122 °C |
| COc1cccc(OC)c1C(C)=O [2',6'-dimethoxyacetophenone] | 70 °C |
| CC(=O)Nc1ccccc1S(C)(=O)=O [2'-(methylsulfonyl)acetanilide] | 145 °C |
| O=C(/C=C/c1ccccc1)c1ccccc1O [2'-hydroxychalcone] | 90 °C |
| CC(=O)Nc1ccccc1C(C)C [2'-isopropylacetanilide] | 73 °C |
| OCCOCCOCCO [2,2'-[Ethane-1,2-diylbis(oxy)]diethanol] | -4 °C |
| Oc1ccc(Cl)cc1Cc1cc(Cl)ccc1O [2,2'-methylenebis(4-chlorophenol)] | 174 °C |
| c1ccc(-c2cccc(-c3ccccn3)n2)nc1 [2,2':6',2''-terpyridine] | 91 °C |
| OCC(F)(F)F [2,2,2-Trifluoroethanol] | -43.5 °C |
| NC(=O)C(F)(F)F [2,2,2-trifluoroacetamide] | 73 °C |
| CC(C)(C)C(N)=S [2,2,2-trimethylthioacetamide] | 115 °C |
| OCC(F)(F)C(F)(F)CO [2,2,3,3-tetrafluoro-1,4-butanediol] | 84 °C |
| CC(C)CC(C)(C)C [2,2,4-Trimethylpentane] | -107 °C |
| CC(C)C(O)C(C)(C)CO (stereo not drawn) [2,2,4-trimethyl-1,3-pentanediol] | 52 °C |
| CC(C)CC(C)(C)C [2,2,4-trimethylpentane] | -107 °C |
